Experimental data: patent publication US10981926B2 (Janssen Pharmaceutica NV, priority 2016, dated 2021)

Columns and labels:
[1] = biological target: T1, wild-type Androgen Receptor (AR-wt) (Homo sapiens (Human), UniProt P10275); experiment: LNCaP-AR-wt ANT reporter assay (antagonist mode); format: cell-based; conditions: for IC50 / LNCaP-AR-wt ANT pIC50: antagonist mode, pIC50 = −Log10(IC50 in Molar); for IC50: read-out: LNCaP-AR-wt ANT pIC50 (converted); for Emax: maximum % inhibition of R1881 control response over the tested concentration range, read-out: LNCaP-AR-wt ANT MAX % Inh
T1 sequence (P10275 whole entry): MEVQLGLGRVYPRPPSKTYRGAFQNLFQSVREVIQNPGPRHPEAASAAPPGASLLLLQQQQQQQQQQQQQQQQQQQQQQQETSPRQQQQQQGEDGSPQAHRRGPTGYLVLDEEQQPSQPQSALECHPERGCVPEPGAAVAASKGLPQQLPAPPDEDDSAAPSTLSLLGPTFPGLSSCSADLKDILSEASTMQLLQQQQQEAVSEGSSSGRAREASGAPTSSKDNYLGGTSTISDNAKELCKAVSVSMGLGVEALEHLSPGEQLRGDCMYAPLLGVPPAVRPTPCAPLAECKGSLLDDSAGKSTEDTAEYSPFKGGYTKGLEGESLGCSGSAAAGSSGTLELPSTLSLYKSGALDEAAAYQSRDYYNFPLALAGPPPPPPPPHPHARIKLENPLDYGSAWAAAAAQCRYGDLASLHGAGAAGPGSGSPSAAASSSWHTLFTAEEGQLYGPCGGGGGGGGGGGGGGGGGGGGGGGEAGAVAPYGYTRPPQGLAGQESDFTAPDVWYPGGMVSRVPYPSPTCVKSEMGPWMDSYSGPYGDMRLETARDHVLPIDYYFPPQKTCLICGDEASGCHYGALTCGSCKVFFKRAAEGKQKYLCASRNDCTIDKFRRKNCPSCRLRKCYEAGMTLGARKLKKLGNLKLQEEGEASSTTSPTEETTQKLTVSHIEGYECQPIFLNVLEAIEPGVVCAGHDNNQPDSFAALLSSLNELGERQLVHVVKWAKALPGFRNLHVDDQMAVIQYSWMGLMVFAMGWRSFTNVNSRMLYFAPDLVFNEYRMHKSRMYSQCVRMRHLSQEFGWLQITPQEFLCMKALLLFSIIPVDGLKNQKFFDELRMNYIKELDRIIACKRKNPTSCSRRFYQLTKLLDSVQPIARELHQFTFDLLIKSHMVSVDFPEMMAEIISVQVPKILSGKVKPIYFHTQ

[2] = biological target: T1, wild-type Androgen Receptor (AR-wt); experiment: LNCaP-AR-wt AG reporter assay (agonist mode); format: cell-based; conditions: for EC50: read-out: LNCaP-AR-wt AG pEC50 (converted); for Emax: maximum % stimulation (agonist response) over the tested concentration range, read-out: LNCaP-AR-wt AG MAX % Stim
[3] = biological target: T2, F876L mutant Androgen Receptor (AR-F876L) (Homo sapiens (Human), UniProt P10275, F877L); experiment: LNCaP-AR-F876L ANT reporter assay (antagonist mode); format: cell-based; conditions: for IC50 / LNCaP-AR-F876L ANT pIC50: antagonist mode, pIC50 = −Log10(IC50 in Molar); for IC50: read-out: LNCaP-AR-F876L ANT pIC50 (converted); for Emax: maximum % inhibition of R1881 control response over the tested concentration range, read-out: LNCaP-AR-F876L ANT MAX % Inh
T2 sequence (P10275 whole entry F877L): as the sequence (P10275 whole entry) above, with F877L counted along it

[4] = biological target: T2, F876L mutant Androgen Receptor (AR-F876L); experiment: LNCaP-AR-F876L AG reporter assay (agonist mode); format: cell-based; conditions: for EC50: read-out: LNCaP-AR-F876L AG pEC50 (converted); for Emax: maximum % stimulation (agonist response) over the tested concentration range, read-out: LNCaP-AR-F876L AG MAX % Stim
[5] = system: rGABA-gated Cl− channel; experiment: GABA-Gated Cl Channel Antagonist Radioligand Binding Assay; parameters: species or system rat; conditions: 10 μM single point, [35S]-TBPS, cerebral cortex membrane homogenates
Protocol: GABA-gated C1 Chanel assays were performed at CEREP according to the following method. Membrane homogenates of cerebral cortex (120 μg protein) were incubated for 120 min at 22° C. with 3 nM […] in the absence or presence of the test compound in a buffer containing 50 mM Na2HPO4/KH2PO4 (pH 7.4) and 500 mM NaCl. Nonspecific binding was determined in the presence of 20 μM picrotoxinin. Following incubation, the samples were filtered rapidly under vacuum through glass fiber filters (GF/B, Packard) presoaked with 0.3% PEI and rinsed several times with ice-cold 50 mM Tris-HCl using a 96-sample cell harvester (Unifilter, Packard). The filters were dried then counted for radioactivity in a scintillation counter (Topcount, Packard) using a scintillation cocktail (Microscint 0, Packard). The results are expressed as a percent inhibition of the control radio ligand specific binding. The standard reference compound is picrotoxinin, which was tested in each experiment at several concentrations to obtain a competition curve from which its IC50 was calculated. In this assay, the following representative compounds disclosed herein had recorded activities at a 10 μM single point concentration in the GABA-gated Cl— Channel Binding Assay.

[6] = agonist mode, pEC50 = −Log10(EC50 in Molar)

Row | IC50 [1] [nM] | Emax [1] [%] | EC50 [2, 6] [nM] | Emax [2] [%] | IC50 [3] [nM] | Emax [3] [%] | EC50 [4, 6] [nM] | Emax [4] [%] | rGABA-gated Cl− channel % inh @10 μM [5] [%] | LNCaP-AR-wt ANT pIC50 [1] | LNCaP-AR-F876L ANT pIC50 [3] | Structure (SMILES) | LNCaP-AR-wt AG pEC50 [2, 6] | LNCaP-AR-F876L AG pEC50 [4, 6]
1 | 537 | 97.6 | > 15100 | 0.2 | 1000 | 96 | > 15100 | 1.5 | 67.5 |  |  | N#Cc1ncc(N2C(=O)C3(CCC3)N(c3ccc(OC4CCN(CC(F)(F)F)CC4)cc3)C2=S)cc1C(F)(F)F [Cpd 40, 5-[5-oxo-7-thioxo-8-[4-[[1-(2,2,2-trifluoroethyl)-4-piperidyl]oxy]phenyl]-6,8-diazaspiro[3.4]octan-6-yl]-3-(trifluoromethyl)pyridine-2-carbonitrile] |  | 
2 | 427 | 99.3 | > 15100 | 0.1 | 257 | 99.9 | > 15100 | 0.1 | 20.4 |  |  | CN1CCC(Oc2ccc(N3C(=S)N(c4cnc(C#N)c(C(F)F)c4)C(=O)C34CCC4)cc2)CC1 [Cpd 41, 3-(difluoromethyl)-5-[8-[4-[(1-methyl-4-piperidyl)oxy]phenyl]-5-oxo-7-thioxo-6,8-diazaspiro[3,4]octan-6-yl]pyridine-2-carbonitrile] |  | 
3 |  | 98.8 | > 15100 | 0.7 |  | 101 | > 15100 | 0.1 | −0.5 | 7.12 | 7.43 | N#Cc1ncc(N2C(=O)C3(CCC3)N(c3ccc(OC4CCNCC4)cc3)C2=S)cc1Cl [Cpd 44, 3-chloro-5-[5-oxo-8-[4-(4-piperidyloxy)phenyl]-7-thioxo-6,8-diazaspiro[3.4]octan-6-yl]pyridine-2-carbonitrile] |  | 
4 |  | 102 | > 15100 | 0 |  | 100 | > 15100 | 0.2 | 37.2 | 6.45 | 6.69 | N#Cc1ncc(N2C(=O)C3(CCC3)N(c3ccc(CN4CCNCC4)cc3)C2=S)cc1C(F)(F)F [Cpd 48, 5-[5-oxo-8-[4-(piperazin-1-ylmethyl)phenyl]-7-thioxo-6,8-diazaspiro[3.4]octan-6-yl]-3-(trifluoromethyl)pyridine-2-carbonitrile] |  | 
5 | 105 | 101 | > 15100 | 0.3 | 56.2 | 99.5 | > 15100 | 0.4 | 86.4 |  |  | CCOC(=O)N1CCC(CNC(=O)c2ccc(N3C(=S)N(c4cnc(C#N)c(C(F)(F)F)c4)C(=O)C34CCC4)cc2)CC1 [Cpd 49, ethyl 4-[[[4-[6-[6-cyano-5-(trifluoromethyl)-3-pyridyl]-5-oxo-7-thioxo-6,8-diazaspiro[3.4]octan-8-yl]benzoyl]amino]methyl]piperidine-1-carboxylate] |  | 
6 | 16.2 | 101 | > 15100 | 0.1 | 8.71 | 98 | > 15100 | 1.4 | 13.2 |  |  | N#Cc1ncc(N2C(=O)C3(CCC3)N(c3ccc(OC4CCN(CCO)CC4)cc3)C2=S)cc1Cl [Cpd 50, 3-chloro-5-[8-[4-[[1-(2-hydroxyethyl)-4-piperidyl]oxy]phenyl]-5-oxo-7-thioxo-6,8-diazaspiro[3.4]octan-6-yl]pyridine-2-carbonitrile] |  | 
7 | 123 | 102 | > 15100 | 0.4 | 45.7 | 100 | > 15100 | 0.1 | 52.4 |  |  | CNC(=O)N1CCN(Cc2ccc(N3C(=S)N(c4cnc(C#N)c(C(F)(F)F)c4)C(=O)C34CCC4)cc2)CC1 [Cpd 53, 4-[[4-[6-[6-cyano-5-(trifluoromethyl)-3-pyridyl]-5-oxo-7-thioxo-6,8-diazaspiro[3.4]octan-8-yl]phenyl]methyl]-N-methyl-piperazine-1-carboxamide] |  | 
8 | 81.3 | 101 | > 15100 | 1.3 | 93.3 | 97.1 | > 15100 | 0.7 | 93.0 |  |  | N#Cc1ncc(N2C(=O)C3(CCC3)N(c3ccc(OCC4CC(F)(F)CN4)cc3)C2=S)cc1C(F)(F)F (stereo not drawn) [Cpd 54, 5-[8-[4-[(4,4-difluoropyrrolidin-2-yl)methoxy]phenyl]-5-oxo-7-thioxo-6,8-diazaspiro[3.4]octan-6-yl]-3-(trifluoromethyl)pyridine-2-carbonitrile] |  | 
9 | 72.4 | 104 | > 15100 | 0.6 | 40.7 | 101 | > 15100 | 0.5 | 100.0 |  |  | CCOC(=O)N1CCN(Cc2ccc(N3C(=S)N(c4cnc(C#N)c(C(F)(F)F)c4)C(=O)C34CCC4)cc2)CC1 [Cpd 55, Ethyl 4-[[4-[6-[6-cyano-5-(trifluoromethyl)-3-pyridyl]-5-oxo-7-thioxo-6,8-diazaspiro[3.4]octan-8-yl]phenyl]methyl]piperazine-1-carboxylate] |  | 
10 | 87.1 | 101 | > 15100 | 0 | 93.3 | 98.1 | > 15100 | 1 | 88.1 |  |  | CCOC(=O)N1CCN(c2ccc(N3C(=S)N(c4cnc(C#N)c(C(F)(F)F)c4)C(=O)C34CCC4)cc2)CC1 [Cpd 58, Ethyl 4-[4-[6-[6-cyano-5-(trifluoromethyl)-3-pyridyl]-5-oxo-7-thioxo-6,8-diazaspiro[3.4]octan-8-yl]phenyl]piperazine-1-carboxylate] |  | 
11 | 135 | 102 | > 15100 | 0 | 56.2 | 100 | > 15100 | 0.1 | 16.0 |  |  | CN1CC(COc2ccc(N3C(=S)N(c4cnc(C#N)c(C(F)(F)F)c4)C(=O)C34CCC4)cc2)C1 [Cpd 59, 5-[8-[4-[(1-methylazetidin-3-yl)methoxy]phenyl]-5-oxo-7-thioxo-6,8-diazaspiro[3.4]octan-6-yl]-3-(trifluoromethyl)pyridine-2-carbonitrile] |  | 

Row | Structure (SMILES) | IC50 [1] [nM] | Emax [1] [%] | EC50 [2, 6] [nM] | Emax [2] [%] | IC50 [3] [nM] | Emax [3] [%] | EC50 [4, 6] [nM] | Emax [4] [%] | rGABA-gated Cl− channel % inh @10 μM [5] [%] | LNCaP-AR-wt ANT pIC50 [1] | LNCaP-AR-F876L ANT pIC50 [3] | LNCaP-AR-wt AG pEC50 [2, 6] | LNCaP-AR-F876L AG pEC50 [4, 6]
12 | CN1[C@@H]2CC[C@H]1C[C@H](Oc1ccc(N3C(=S)N(c4cnc(C#N)c(C(F)(F)F)c4)C(=O)C34CCC4)cc1)C2 [Cpd 52, 5-[8-[4-[[(1R,3s,5S)-8-methyl-8-azabicyclo[3.2.1]octan-3-yl]oxy]phenyl]-5-oxo-7-thioxo-6,8-diazaspiro[3.4]octan-6-yl]-3-(trifluoromethyl)pyridine-2-carbonitrile] |  | 98.3 |  | 2.8 | 43.7 | 98.9 |  | 0.8 | 13.1 | 6.76 |  | <4.82 | <4.82
